# Source: patent US11123337B2, “4-methylsulfonyl-substituted piperidine urea compounds” (MYOKARDIA, INC., priority 2015, dated 2021)
# Molecular target: bovine cardiac myosin (Bos taurus, UniProt Q9BE39)
# Assay: Myosin activation assay (PK/LDH-coupled ATPase, bovine cardiac myofibrils)
# Assay type: biochemical
# Details: AC20 = concentration at which total response is increased by twenty percent
# Procedure: Small molecule agents were assessed for their ability to activate the enzymatic activity of bovine cardiac myosin using a biochemical assay that couples the release of ADP (adenosine diphosphate) from cardiac myosin to an enzymatic coupling system consisting of pyruvate kinase and lactate dehydrogenase (PK/LDH) and monitoring the absorbance decrease of NADH (at 340 nm) as a function of time. PK converts ADP to ATP (adenosine triphosphate) by converting PEP (phosphoenolpyruvate) to pyruvate. Pyruvate is then converted to lactate by LDH by converting NADH (nicotinamide adenine dinucleotide) to NAD (oxidized nicotinamide adenine dinucleotide). The source of cardiac myosin was from bovine heart in the form of skinned myofibrils. Prior to testing small molecule agents, the bovine myofibrils were assessed for their calcium responsiveness and the calcium concentration that achieves either a 50% (pCa50 or pCa=˜6) or <5% (pCa=10) activation of the myofibril system was chosen as the final condition for assessing the activation activity of the small molecule agents. All enzymatic activity was measured in a buffered solution containing 12 mM PIPES (piperazine-N,N′-bis(2-ethanesulfonic acid), 2 mM magnesium chloride at pH 6.8 (PM12 buffer). Final assay conditions were 1 mg/mL of bovine cardiac myofibrils, 0.4 mM PK/LDH, 50 uM ATP, 0.1 mg/mL BSA (bovine serum albumin), 10 ppm antifoam, 2 mM BME, 0.5 mM NADH, 1.5 mM PEP at the desired free calcium concentration required to achieve either 50% or <5% activation of the myofibrils.
# A dilution series of compound was created in DMSO such that the final desired concentration of compound would be achieved in a volume of […] with a fixed DMSO concentration of 3.3% (v/v). Typically a 1 μL of the dilution series was added to a 384 well plate to achieve a 10 point dose response. Following the addition of 14 μL of a solution containing bovine cardiac myofibrils, PK/LDH and a solution of calcium (that achieved the desired activation), the enzymatic reaction was started with the addition of 15 μL of a solution containing ATP, PEP and NADH. The reaction progress was followed in a PerkinElmer Envision plate reader at ambient temperature using clear bottom plates. The plate reader was configured to read absorbance at 340 nm in kinetics mode for 15 minutes. Data were recorded as the slope of the absorbance response to time. The slopes of the absorbance response as a function of time were normalized to slopes on the plate containing DMSO. This normalized rate was then plotted as a function of small molecule concentration and the data was fitted to a four-parameter fit using EXCEL XLfit. The concentration at which the total response is increased by twenty or fifty percent is reported as AC20 or AC50.
# Chain of bovine cardiac myosin (Q9BE39 whole entry): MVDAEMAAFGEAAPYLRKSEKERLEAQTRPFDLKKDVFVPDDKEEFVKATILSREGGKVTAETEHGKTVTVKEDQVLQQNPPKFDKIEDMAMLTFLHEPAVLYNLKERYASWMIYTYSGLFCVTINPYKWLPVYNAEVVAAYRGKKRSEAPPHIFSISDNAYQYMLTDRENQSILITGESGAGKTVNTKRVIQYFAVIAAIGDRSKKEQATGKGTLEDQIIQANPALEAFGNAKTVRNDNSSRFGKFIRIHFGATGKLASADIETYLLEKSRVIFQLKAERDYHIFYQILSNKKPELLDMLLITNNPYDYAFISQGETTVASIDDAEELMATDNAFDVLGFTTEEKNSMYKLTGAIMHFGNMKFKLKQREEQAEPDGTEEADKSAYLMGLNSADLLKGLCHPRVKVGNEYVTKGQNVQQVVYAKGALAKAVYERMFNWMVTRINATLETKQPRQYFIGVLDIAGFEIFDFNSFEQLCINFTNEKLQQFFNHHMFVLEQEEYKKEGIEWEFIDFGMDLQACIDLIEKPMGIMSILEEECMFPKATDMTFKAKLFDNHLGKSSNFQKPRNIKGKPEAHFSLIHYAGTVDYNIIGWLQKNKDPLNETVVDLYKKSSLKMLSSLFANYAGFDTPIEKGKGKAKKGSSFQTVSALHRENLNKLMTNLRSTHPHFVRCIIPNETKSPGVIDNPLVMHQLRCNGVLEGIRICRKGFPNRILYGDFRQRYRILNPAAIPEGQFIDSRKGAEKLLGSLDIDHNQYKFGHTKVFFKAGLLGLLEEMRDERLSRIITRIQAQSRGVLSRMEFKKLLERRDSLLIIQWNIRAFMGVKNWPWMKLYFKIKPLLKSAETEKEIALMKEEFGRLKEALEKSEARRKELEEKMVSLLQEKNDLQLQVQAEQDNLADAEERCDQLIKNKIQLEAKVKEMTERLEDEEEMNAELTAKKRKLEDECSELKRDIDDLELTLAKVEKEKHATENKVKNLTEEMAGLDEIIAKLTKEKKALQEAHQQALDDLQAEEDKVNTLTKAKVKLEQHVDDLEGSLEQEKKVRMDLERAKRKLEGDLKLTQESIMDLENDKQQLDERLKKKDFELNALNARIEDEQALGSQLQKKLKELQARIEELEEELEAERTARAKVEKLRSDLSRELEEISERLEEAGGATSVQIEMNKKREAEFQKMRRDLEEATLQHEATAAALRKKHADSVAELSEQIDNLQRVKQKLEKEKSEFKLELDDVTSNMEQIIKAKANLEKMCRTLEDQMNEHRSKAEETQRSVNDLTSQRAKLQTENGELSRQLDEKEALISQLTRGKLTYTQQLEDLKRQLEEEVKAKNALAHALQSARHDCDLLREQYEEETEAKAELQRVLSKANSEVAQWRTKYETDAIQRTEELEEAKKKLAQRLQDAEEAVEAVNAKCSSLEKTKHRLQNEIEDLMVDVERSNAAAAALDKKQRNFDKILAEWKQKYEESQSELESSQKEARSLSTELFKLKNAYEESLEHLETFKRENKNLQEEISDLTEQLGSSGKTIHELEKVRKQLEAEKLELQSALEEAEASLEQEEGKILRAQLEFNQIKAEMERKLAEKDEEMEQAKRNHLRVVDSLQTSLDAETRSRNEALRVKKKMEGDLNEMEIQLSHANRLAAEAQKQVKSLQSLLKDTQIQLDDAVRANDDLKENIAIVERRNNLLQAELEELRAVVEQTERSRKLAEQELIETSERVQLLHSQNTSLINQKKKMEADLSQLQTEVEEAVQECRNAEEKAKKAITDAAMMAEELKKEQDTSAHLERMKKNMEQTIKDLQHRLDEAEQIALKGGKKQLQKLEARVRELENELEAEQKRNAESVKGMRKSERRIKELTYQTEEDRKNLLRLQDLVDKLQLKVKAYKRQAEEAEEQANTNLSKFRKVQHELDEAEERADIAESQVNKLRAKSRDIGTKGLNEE
# Chain of bovine cardiac myosin (P85100 whole entry partner): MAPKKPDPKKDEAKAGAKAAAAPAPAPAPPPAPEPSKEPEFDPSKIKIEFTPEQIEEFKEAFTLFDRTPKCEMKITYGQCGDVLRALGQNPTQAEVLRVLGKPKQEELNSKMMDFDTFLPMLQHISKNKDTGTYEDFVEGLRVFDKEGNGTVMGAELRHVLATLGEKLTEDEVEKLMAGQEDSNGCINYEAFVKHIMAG
# Chain of bovine cardiac myosin (Q3SZE5 whole entry partner): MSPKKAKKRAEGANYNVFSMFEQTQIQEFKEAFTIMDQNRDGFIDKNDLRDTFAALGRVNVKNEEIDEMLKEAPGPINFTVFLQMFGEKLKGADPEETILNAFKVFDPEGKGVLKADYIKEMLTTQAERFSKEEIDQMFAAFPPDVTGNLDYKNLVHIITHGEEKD
row,SMILES,Myosin Activation (AC20)
1,"CC(C1CCN(C(=O)Nc2ccncc2)CC1)S(=O)(=O)c1cccc(F)c1 (stereo not drawn) [Compound 31, 4-(1-((3-fluorophenyl)sulfonyl)ethyl)-N-(pyridin-4-yl)piperidine-1-carboxamide]",++ (++ represents myosin activation value AC20 from 2 μM-5 μM)
2,"O=C(Nc1ccncc1)N1CCC(CS(=O)(=O)c2cccc(F)c2)CC1 [Compound 33, 4-(((3-fluorophenyl)sulfonyl)methyl)-N-(pyridin-4-yl)piperidine-1-carboxamide]",+ (+ represents myosin activation value AC20 > 5 μM)
3,"O=C(Nc1ccnnc1)N1CCC(CS(=O)(=O)c2cccc(F)c2)CC1 [Compound 34, 4-(((3-fluorophenyl)sulfonyl)methyl)-N-(pyridazin-4-yl)piperidine-1-carboxamide]",+ (+ represents myosin activation value AC20 > 5 μM)
4,"O=C(Nc1ccncc1)N1CCC(C2(S(=O)(=O)c3cccc(F)c3)CC2)CC1 [Compound 35, 4-(1-((3-fluorophenyl)sulfonyl)cyclopropyl)-N-(pyridin-4-yl)piperidine-1-carboxamide]",+++ (+++ represents myosin activation value AC20 < 2 μM)
5,"O=C(Nc1cncs1)N1CCC(CS(=O)(=O)c2cccc(F)c2)CC1 [Compound 36, 4-(((3-fluorophenyl)sulfonyl)methyl)-N-(thiazol-5-yl)piperidine-1-carboxamide]",+ (+ represents myosin activation value AC20 > 5 μM)
6,"O=C(Nc1cncs1)N1CCC(C2(S(=O)(=O)c3cccc(F)c3)CC2)CC1 [Compound 37, 4-(1-((3-fluorophenyl)sulfonyl)cyclopropyl)-N-(thiazol-5-yl)piperidine-1-carboxamide]",+++ (+++ represents myosin activation value AC20 < 2 μM)
7,"Cc1ccc(S(=O)(=O)CC2CCN(C(=O)Nc3ccncc3)CC2)cc1 [Compound 38, N-(pyridin-4-yl)-4-(tosylmethyl)piperidine-1-carboxamide]",+ (+ represents myosin activation value AC20 > 5 μM)
8,"Cc1ccccc1S(=O)(=O)CC1CCN(C(=O)Nc2ccncc2)CC1 [Compound 39, N-(pyridin-4-yl)-4-((o-tolylsulfonyl)methyl)piperidine-1-carboxamide]",+ (+ represents myosin activation value AC20 > 5 μM)
9,"O=C(Nc1ccncc1)N1CCC(C2(S(=O)(=O)c3cccc(F)c3)CCC2)CC1 [Compound 42, 4-(1-((3-fluorophenyl)sulfonyl)cyclobutyl)-N-(pyridin-4-yl)piperidine-1-carboxamide]",+++ (+++ represents myosin activation value AC20 < 2 μM)
10,"O=C(Nc1ccnnc1)N1CCC(C2(S(=O)(=O)c3cccc(F)c3)CCC2)CC1 [Compound 43, 4-(1-((3-fluorophenyl)sulfonyl)cyclobutyl)-N-(pyridazin-4-yl)piperidine-1-carboxamide]",+++ (+++ represents myosin activation value AC20 < 2 μM)
11,"O=C(Nc1cnns1)N1CCC(C(F)(F)S(=O)(=O)c2cccc(F)c2)CC1 [Compound 44, 4-(difluoro((3-fluorophenyl)sulfonyl)methyl)-N-(1,2,3-thiadiazol-5-yl)piperidine-1-carboxamide]",+ (+ represents myosin activation value AC20 > 5 μM)
12,"CC(F)(C1CCN(C(=O)Nc2cnns2)CC1)S(=O)(=O)c1cccc(F)c1 (stereo not drawn) [Compound 45, 4-(1-fluoro-1-((3-fluorophenyl)sulfonyl)ethyl)-N-(1,2,3-thiadiazol-5-yl)piperidine-1-carboxamide]",+++ (+++ represents myosin activation value AC20 < 2 μM)
13,"O=C(Nc1ccnnc1)N1CCC(C(F)(F)S(=O)(=O)c2ccc(OC(F)(F)F)cc2)CC1 [Compound 48, 4-(difluoro((4-(trifluoromethoxy)phenyl)sulfonyl)methyl)-N-(pyridazin-4-yl)piperidine-1-carboxamide]",++ (++ represents myosin activation value AC20 from 2 μM-5 μM)
14,"O=C(Nc1ccnnc1)N1CCC(C(F)(F)S(=O)(=O)c2cccc(C(F)(F)F)c2)CC1 [Compound 49, 4-(difluoro((3-(trifluoromethyl)phenyl)sulfonyl)methyl)-N-(pyridazin-4-yl)piperidine-1-carboxamide]",++ (++ represents myosin activation value AC20 from 2 μM-5 μM)
15,"Cc1ccc(S(=O)(=O)C(F)(F)C2CCN(C(=O)Nc3ccnnc3)CC2)cn1 [Compound 50, 4-(difluoro((6-methylpyridin-3-yl)sulfonyl)methyl)-N-(pyridazin-4-yl)piperidine-1-carboxamide]",++ (++ represents myosin activation value AC20 from 2 μM-5 μM)
16,"Cc1cc(C#N)ccc1S(=O)(=O)C(F)(F)C1CCN(C(=O)Nc2ccnnc2)CC1 [Compound 52, 4-(((4-cyano-2-methylphenyl)sulfonyl)difluoromethyl)-N-(pyridazin-4-yl)piperidine-1-carboxamide]",++ (++ represents myosin activation value AC20 from 2 μM-5 μM)
17,"Cc1ccccc1S(=O)(=O)C(C)(F)C1CCN(C(=O)Nc2ccnnc2)CC1 (stereo not drawn) [Compound 53, 4-(1-fluoro-1-(o-tolylsulfonyl)ethyl)-N-(pyridazin-4-yl)piperidine-1-carboxamide]",+++ (+++ represents myosin activation value AC20 < 2 μM)
18,"N#Cc1ccccc1S(=O)(=O)C(F)(F)C1CCN(C(=O)Nc2ccnnc2)CC1 [Compound 54, 4-(((2-cyanophenyl)sulfonyl)difluoromethyl)-N-(pyridazin-4-yl)piperidine-1-carboxamide]",++ (++ represents myosin activation value AC20 from 2 μM-5 μM)
19,"COc1ncccc1S(=O)(=O)C(C)(F)C1CCN(C(=O)Nc2ccnnc2)CC1 (stereo not drawn) [Compound 55, 4-(1-fluoro-1-((2-methoxypyridin-3-yl)sulfonyl)ethyl)-N-(pyridazin-4-yl)piperidine-1-carboxamide]",++ (++ represents myosin activation value AC20 from 2 μM-5 μM)
20,"CC(F)(C1CCN(C(=O)Nc2ccnnc2)CC1)S(=O)(=O)c1ccccc1C#N (stereo not drawn) [Compound 56, 4-(1-((2-cyanophenyl)sulfonyl)-1-fluoroethyl)-N-(pyridazin-4-yl)piperidine-1-carboxamide]",+++ (+++ represents myosin activation value AC20 < 2 μM)
21,"CC(F)(C1CCN(C(=O)Nc2ccnnc2)CC1)S(=O)(=O)c1ccccc1C(F)(F)F (stereo not drawn) [Compound 57, 4-(1-fluoro-1-((2-(trifluoromethyl)phenyl)sulfonyl)ethyl)-N-(pyridazin-4-yl)piperidine-1-carboxamide]",++ (++ represents myosin activation value AC20 from 2 μM-5 μM)
22,"Cn1nccc1-c1ccc(S(=O)(=O)C(F)(F)C2CCN(C(=O)Nc3ccnnc3)CC2)cc1 [Compound 58, 4-(difluoro((4-(1-methyl-1H-pyrazol-5-yl)phenyl)sulfonyl)methyl)-N-(pyridazin-4-yl)piperidine-1-carboxamide]",+ (+ represents myosin activation value AC20 > 5 μM)
23,"O=C(Nc1ccnnc1)N1CCC(C(F)(F)S(=O)(=O)c2ccc(C3CC3)nc2)CC1 [Compound 60, 4-(((6-cyclopropylpyridin-3-yl)sulfonyl)difluoromethyl)-N-(pyridazin-4-yl)piperidine-1-carboxamide]",++ (++ represents myosin activation value AC20 from 2 μM-5 μM)
24,"COc1c(F)cccc1S(=O)(=O)C(F)(F)C1CCN(C(=O)Nc2ccnnc2)CC1 [Compound 61, 4-(difluoro((3-fluoro-2-methoxyphenyl)sulfonyl)methyl)-N-(pyridazin-4-yl)piperidine-1-carboxamide]",++ (++ represents myosin activation value AC20 from 2 μM-5 μM)
25,"COc1ccccc1S(=O)(=O)C(F)(F)C1CCN(C(=O)Nc2ccnnc2)CC1 [Compound 62, 4-(difluoro((2-methoxyphenyl)sulfonyl)methyl)-N-(pyridazin-4-yl)piperidine-1-carboxamide]",+ (+ represents myosin activation value AC20 > 5 μM)
26,"Cc1ccc(F)cc1S(=O)(=O)C(F)(F)C1CCN(C(=O)Nc2ccnnc2)CC1 [Compound 63, 4-(difluoro((5-fluoro-2-methylphenyl)sulfonyl)methyl)-N-(pyridazin-4-yl)piperidine-1-carboxamide]",++ (++ represents myosin activation value AC20 from 2 μM-5 μM)
27,"O=C(Nc1ccnnc1)N1CCC(C(F)(F)S(=O)(=O)c2ccc(-n3cncn3)cc2)CC1 [Compound 64, 4-(((4-(1H-1,2,4-triazol-1-yl)phenyl)sulfonyl)difluoromethyl)-N-(pyridazin-4-yl)piperidine-1-carboxamide]",++ (++ represents myosin activation value AC20 from 2 μM-5 μM)
